Experimental data from patent US9745357B2, “Peptides used for treating cancers and, in particular, chronic lymphoid leukaemia” (Centre National de la Recherche Scientifique, priority 2009, dated 2017).
Entries after “also recorded” stand apart in the source; their conditions may differ. No end group written: not given here.

Key:
[1] = system: B lymphocytes from patients suffering from chronic lymphoid leukemia (CLL); conditions: for effect on percentage cell survival / cell effect CLL 40 (survival): 40 μM peptide; for effect on percentage cell survival: 4 H and 24 H, FIG. 3; for cell effect CLL 40 (survival): 4 hours of culture, cells not labeled with annexin or propidium iodide; for action of the peptide on cell survival, in words, cell type not given: Example 6 (CLL cells, control T lymphocytes, Jok cells)
Method: Peripheral blood B lymphocytes taken from patients suffering from CLL and then purified on a Ficoll cushion and placed in culture are incubated in the presence of […] of the peptides described for FIG. 2. The percentage cell survival after 4 hours (gray column) or 24 hours (white column) of culture corresponds to the percentage of cells labeled neither with annexin nor with propidium iodide, evaluated by flow cytometry.
The CLL B lymphocytes were obtained from peripheral blood of 18 different patients suffering from chronic lymphoid leukemia. […] The samples were taken in the Brest hospital center, in the hematology department. The blood samples were taken after informing the patients and obtaining their informed consent.
The lymphocytes, mononuclear cells, were isolated from the heparinized peripheral blood samples by Ficoll-Hypaque (LSM 1077 lymphocyte, euro-bio) centrifugation. The red blood cells were lyzed by incubation for 10 min in VersaLyse Lysing Solution (Beckman Coulter). The mononuclear cells are obtained after 2 washes in culture medium (RPMI1640, Gibco BRL).
(§1) The cells were cultured in a culture medium composed either of RPMI 1640 (B lymphocytes) or of DMEM (COS7, HCT116, HGT1, 293, HeLa) containing 10% of FCS (fetal calf serum, 1% of penicillin-streptomycin and 1% of glutamine, Gibco BRL). The cells are distributed in a 24-well plate and cultured at 37° C. in a humid atmosphere under 5% CO2.
(§2) 400 μl of cell suspension (1×10^6 cells/ml) per well were treated for 4 h or 24 h with various concentrations of peptides. The test for activity of the peptides in the presence of emetine (FIG. 6) was carried out by preincubating the cells with 100 μM of emetine for one hour before the addition of peptide.
(§3) After the cells have been washed with PBS, they were analyzed using the Annexin V-FITC IP system according to the supplier's recommendations (Beckman Coulter).
The cells taken from patients suffering from chronic lymphoid leukemia were purified on a Ficoll cushion. […] The cells were placed in culture in RPMI medium in the presence of 10% FCS (fetal calf serum). The peptides were added directly to the culture medium. These peptides comprise the IRS sequence (the amino acid sequence of which is RYIRS) which is known to allow the penetration of peptides into B lymphocytes in culture (Dong et al., 2005). […] The cells which survive the treatment are those which are labeled neither with annexin nor with propidium iodide.

[2] = system: control T lymphocytes (patients suffering from hemochromatosis); assay: Cell survival of control T lymphocytes, annexin/propidium iodide flow cytometry; type: cell-based, human; conditions: 40 μM peptide, 4 hours of culture, cells not labeled with annexin or propidium iodide
Method: FIG. 7: Activity of the A1WT peptide on cells of lymphocytic, lymphoid, gastric, colonic or renal origin The cells are prepared and placed in culture (see Materials and Methods) and then incubated for 4 H with the A1WT or A1 YALA peptide. The percentage cell survival corresponds to the percentage of cells labeled neither with annexin nor with propidium iodide, evaluated by flow cytometry. The names of the pathological conditions from which the patients from whom the samples are taken are suffering are indicated under the figure. The control T (L.T.) and B (L.B.) lymphocytes are taken from patients suffering from a disease not related to a lymphocytic pathological condition (hemochromatosis).
The control B lymphocytes and T lymphocytes originate from peripheral blood samples from patients suffering from hemochromatosis, provided by the CTS transfusion center in Brest. The B and T lymphocytes were isolated using the Rosett-Sep kit (Stemcell Technologies) according to the supplier's recommendations.
as §1, §2, §3

[3] = system: Jok cells (cell line derived from B lymphocytes); assay: Cell survival of Jok cells, annexin/propidium iodide flow cytometry; type: cell-based, human; conditions: for cell effect Jok 20 (survival): 20 μM peptide; for cell effect Jok 20 (survival) / cell effect Jok 40 (survival): 4 hours of culture, cells not labeled with annexin or propidium iodide; for cell effect Jok 40 (survival): 40 μM peptide
Method: The cells are treated as indicated for FIG. 7, with the CLL cells, control T lymphocytes and Jok lymphocytes, which are incubated with the A1 WT IRS peptide and derivatives thereof described in table 1. The Jok cells were incubated either with 20 μM (JOK 20) or with 40 μM (JOK 40) of each of the peptides. In the interests of simplifying the legend, the A1 WT IRS peptide is referred to as “WT”. Likewise, the derivatives thereof are referred to by the name of the mutations (A1 K3I IRS is referred to as “K3I”, for example).
as §1, §2, §3
The peptides were tested on B lymphocytes from patients suffering from chronic lymphoid leukemia, control T lymphocytes, or Jok cells (cell line derived from B lymphocytes). The experiment was repeated three times for each type of cell tested.

[4] = system: cap-dependent translation (eIF4E-dependent); assay: Effect of the peptides on translation of capped luciferase mRNA in rabbit reticulocyte lysate; type: biochemical; conditions: 50 μM peptide, compared with DMSO = 100%, FIG. 2
Method: The peptides having the IRS motif and the sequences of 4EBPlike type (A1WT, BPSgWT, and BP2WT) or the mutant sequences of 4EPBlike type (A1YALA, BPSgYALA, BP2YALA) are incubated in rabbit reticulocyte lysate containing capped mRNAs encoding luciferase, an enzyme of which the activity can be easily assayed. The translational activity is directly proportional to the activity of the luciferase produced. The translational activity in the presence of peptide is compared with that obtained during the addition of an equivalent volume of DMSO, considered to be 100%.
The peptides were produced, purified by HPLC (purity>95%), and freeze-dried by Thermofisher Scientific. The peptides were then dissolved at 10 mM in DMSO.
The capped mRNAs encoding Renilla luciferase (Luc R) were produced by the T7 Message Machine Kit system (Ambion) from the pGb-Eg2-410Δ2-hxG-A65 plasmid linearized with EcoRV (Legagneux V, Omilli F, Osborne HB (1995) Substrate-specific regulation of RNA deadenylation in Xenopus embryo and activated egg extracts. RNA 1: 1001-1008).
The Luc R mRNAs were translated for one hour at 30° C. in rabbit reticulocyte lysate (Flexi Rabbit Reticulocyte Lysate System, Promega) in the presence of 50 μM of peptide. The luciferase activity was determined using the Renilla luciferase assay (Promega) on the Tristar LB941 luminometer (Berthold).
A capped mRNA (having a cap at the 5′ end) encoding luciferase, a protein which can be easily assayed by measuring its activity, was translated in the presence of these various peptides in rabbit reticulocyte lysate (FIG. 2). The luciferase activity measured is directly proportional to the amount of luciferase protein produced and therefore to the cap-dependent translational activity. Since the peptides are dissolved in DMSO, it was important to test the effect of DMSO on the translation. […] The translational activity in the presence of peptide was compared with that obtained when an equal volume of DMSO is added, considered to be equal to 100%.

eIF4E = target: T1, eIF4E (Mus musculus, UniProt P63073); assay: Test for interaction of YFP-fused peptide sequences with eIF4E (GST-eIF4E beads, affinity chromatography); type: binding; conditions: 35S Met-labeled YFP fusion produced in rabbit reticulocyte lysate; SDS-PAGE, autoradiography; FIG. 1
T1 construct: made in house; host or cells: E. coli BL21DE3 (Novagen), pGEX-4T-1 vector
From the text: The eIF4E protein fused to glutathione-S-transferase (GST-eIF4E) or GST alone (GST), used as a control, are produced in bacteria, purified and immobilized on glutathione beads. The YFP, YFP-A1 WT and YFP-A1 YALA proteins were produced in rabbit reticulocyte lysate in the presence of 35S methionine and chromatographed on the GST-eIF4 or GST beads. The proteins retained on the beads are eluted and analyzed by SDS-PAGE followed by autoradiography.
The plasmids encoding the YFP protein-peptides were obtained by amplification of the reading frame of the YFP protein (enhanced yellow-green variant of the Aequorea victoria green fluorescent protein) from the pEYFP-C1 plasmid (Clontech). The 5′ primer used (sequence described below) made it possible to insert a T7 promoter (underlined sequence) upstream of the reading frame of YFP. […] The pGEX 4E plasmid was obtained by inserting the reading frame of the mouse eIF4E protein at the BamHI/EcoRI sites of the PGEX-4T-1 vector (Amersham pharmacia biotech). […] After washing, the proteins were eluted with SDS loading buffer, and analyzed, after an SDS-PAGE gel, by autoradiography (Typhoon Phospholmager, Amersham Pharmacia Biotech).
Biochemical validation of the peptides identified was then carried out by means of affinity chromatography approaches. […] The ability of these peptides to interact with eIF4E was then analyzed by affinity chromatography. […]

T1 sequence (P63073 whole entry, the tested form may be a part): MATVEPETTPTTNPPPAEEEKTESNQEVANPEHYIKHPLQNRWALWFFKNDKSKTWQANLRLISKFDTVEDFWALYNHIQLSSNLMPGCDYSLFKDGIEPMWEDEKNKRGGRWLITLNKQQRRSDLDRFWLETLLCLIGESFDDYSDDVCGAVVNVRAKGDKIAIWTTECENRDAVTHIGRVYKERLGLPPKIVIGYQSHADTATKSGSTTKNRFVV

| Substance | effect on percentage cell survival [1] | cell effect CLL 40 (survival) [1] | action of the peptide on cell survival, in words, cell type not given [1] | cell effect LT 40 (survival) [2] | cell effect Jok 20 (survival) [3] | cell effect Jok 40 (survival) [3] | inhibition of translation (luciferase activity) [4] | interaction with eIF4E (retention on GST-eIF4E beads) (eIF4E) | effect of the peptide on cell mortality, in words (relative to A1 WT IRS) ([1]; 40 μM, 4 hours, FIG. 9) | effect of the peptide on cell mortality, in words (relative to A1 WT IRS) ([3]; concentration not given (20 or 40 μM), 4 hours, FIG. 9) | inhibition of translation (luciferase activity) ([4]; listed as BP2) |
| --- | --- | --- | --- | --- | --- | --- | --- | --- | --- | --- | --- |
| RRKAGRDFAARFRYIRS [A1 YALA IRS, reference compound] | has no effect | − (−: survival >50%) | has no effect | − (−: survival >50%) | − (−: survival >50%) | − (−: survival >50%) | does not inhibit the translation |  |  |  |  |
| YFP-A1 WT: YFP, yellow fluorescent protein, fused to a peptide derived from the human Angel 1 protein, of sequence RRKYGRDFLLRF (SEQ ID No. 3) (also: fused to YFP) |  |  |  |  |  |  |  | associates more strongly with eIF4E than the other peptides tested; also recorded: is retained on GST-eIF4E beads |  |  |  |
| RIIADRKFAADRRYIRS [BP2 YALA IRS, YALA mutant control of BP2 WT IRS] |  |  |  |  |  |  | does not cause any inhibition of the translation |  |  |  |  |
| RIIYDRKFLLDRRYIRS [BP2 WT IRS, reference compound] | the percentage survival did not decrease | − (−: survival >50%) | has no effect on cell survival |  | − (−: survival >50%) | − (−: survival >50%) | strong inhibition of the translation |  | has no effect | has no effect | effectively inhibits eIF4E-dependent translation |
